According to article PMC10137179, “Assessment of Covalently Binding Warhead Compounds in the Validation of the Cytomegalovirus Nuclear Egress Complex as an Antiviral Target” (Cells, 2023):
Like-named read-outs stand apart in the source and are kept apart here.

Legend:
[1] = biological target: T1, pUL50–pUL53 interaction (LgBiT::UL53-Flag + SmBiT::UL50-HA) (Human cytomegalovirus, UniProt P16791); assay type: cell-based; details: 293T cells, 5×, 1× or 0.2× anti-HCMV EC50 levels, full-length LgBiT::UL53-Flag
T1 construct: expressed in transfected cells; host or cells: 293T

[2] = biological target: T2, pUL97–cyclin H interaction (LgBiT::UL97(231–280)-Flag + SmBiT::CycH-HA) (UniProt P16788+P51946); test: NanoBiT specificity control, pUL97–cyclin H; assay type: cell-based, HCMV; details: ibrutinib 3.75–30 µM
T2 construct: open reading frames coding for HCMV pUL97 (amino acids 231–280); expressed in transfected cells; host or cells: 293T
T2 sequence (P16788 231-280 limits assumed): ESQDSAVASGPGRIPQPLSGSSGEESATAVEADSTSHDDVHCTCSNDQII
T2 sequence (P51946 1-323): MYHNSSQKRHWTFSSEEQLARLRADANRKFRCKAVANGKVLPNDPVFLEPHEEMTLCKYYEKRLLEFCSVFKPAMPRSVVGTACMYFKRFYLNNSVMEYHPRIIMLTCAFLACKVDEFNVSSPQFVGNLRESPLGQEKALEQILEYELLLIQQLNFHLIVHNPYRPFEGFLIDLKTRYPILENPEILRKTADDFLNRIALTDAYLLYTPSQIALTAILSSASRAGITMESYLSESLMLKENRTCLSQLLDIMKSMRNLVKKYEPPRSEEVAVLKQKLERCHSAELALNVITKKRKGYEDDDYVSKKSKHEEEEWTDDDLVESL

[3] = biological target: T3, HCMV pUL50-HA + pUL53-Flag (Human cytomegalovirus, UniProt P16791); test: Confocal imaging of core NEC localization in cotransfected HeLa cells, HCMV; assay type: cell-based; details: 4 µM, 3 d p.t.
T3 construct: expressed in transfected cells; host or cells: HeLa
Procedure: (§1) HFF or HFF-UL50 cells, either Dox-induced or uninduced, were seeded in 6-well plates with a density of 2 × 10^5 cells per well, grown on coverslips and infected with HCMV AD169 or AD169 ∆UL50-ΣUL53. For infection experiments with the recombinant virus, different Shield-1 and Dox conditions were analyzed. Antivirals were added post-infection as described for the experiments. For transfection experiments, HeLa cells were seeded on coverslips in 6-well plates with a density of 3.25 × 10^5 cells per well for cotransfection with the indicated NEC expression plasmids (HSV-1 HA-UL34 + Flag-UL31, HCMV pUL50-HA + pUL53-Flag and EBV HA-BFRF1 + Flag-BFLF2). At indicated time points after virus infection, or 3 days post-transfection, cells were fixed, applied for IF staining as described previously and analyzed using a TCS SP5 confocal laser-scanning microscope with Leica LAS AF software (Leica Microsystems, Wetzlar, Germany). […] The device features a Leica photomultiplier tube (PMT) and a hybrid detector (HyD). Images were further processed using Photoshop CS5 (Adobe Inc., San José, CA, USA). […] Microscopic counting was performed for quantitation of colocalization patterns of two different proteins, as achieved by counting 50 cells per biological triplicate. […]

[4] = biological target: T4, HSV-1 HA-UL34 + Flag-UL31 (Human herpesvirus 1, UniProt P10215+P10218); test: Confocal imaging of core NEC localization in cotransfected HeLa cells, HSV-1; assay type: cell-based; details: 4 µM, 3 d p.t.
T4 construct: expressed in transfected cells; host or cells: HeLa
Procedure: as §1

[5] = biological target: T5, EBV HA-BFRF1 + Flag-BFLF2 (Epstein-Barr virus, UniProt P03185+P0CK47); test: Confocal imaging of core NEC localization in cotransfected HeLa cells, EBV; assay type: cell-based; details: 4 µM, 3 d p.t.
T5 construct: expressed in transfected cells; host or cells: HeLa
Procedure: as §1

HCMV ∆UL50-ΣUL53 = test: qPCR-based replication assay, HCMV ∆UL50-ΣUL53 in HFF-UL50 cells; assay type: cell-based
Procedure: The viral genome copy number in cell culture supernatants was determined by IE1-specific quantitative real-time PCR (qPCR) as described previously. […] For the qPCR reactions, aliquots of infected-cell supernatants were incubated with proteinase K (Sigma-Aldrich, St. Louis, MO, USA) at 56 °C for 1 h in order to release the viral DNA. After a denaturation step at 95 °C for 5 min, the DNA samples were optionally stored at 4 °C or directly used for qPCR, as performed in a 25 µL reaction mixture containing 5 µL of either the sample or the standard DNA solution. Additional components of the reaction mixture were 12.5 µL 2× TaqMan PCR Mastermix (Applied Biosystems, Waltham, MA, USA), 7.5 pmol of each primer (5′-[…]-3′) and 5′-[…]-3′) and 5 pmol probe directed against the HCMV MIE region exon 4 (5′-[…]-3′), which was labeled with 6-carboxyfluorescein reporter dye and 6-carboxytetramethylrhodamine quencher dye. The DNA standard for quantification was prepared by serial dilutions of an MIE-inserted plasmid. The thermal cycling conditions consisted of two initial steps of 2 min at 50 °C and 10 min at 95 °C followed by 40 amplification cycles (15 s at 95 °C, 1 min 60 °C). Reactions were performed with an ABI Prism 7700 sequence detector (Applied Biosystems, Waltham, MA, USA).
To this end, the conditional expression system of the HCMV ΔUL50-ΣUL53 recombinant was applied. […] The relative differences in viral replication efficiencies, under these four chosen conditions, were normalized by two means, namely, by using the same conditions in the DMSO control panel (±S, ±D) and by evaluating viral replication in percentage values (% DMSO).
HFF-UL50 cells were cultivated in 96-well plates and infected with (A,B) HCMV ∆UL50-ΣUL53, with (C) parental HCMV AD169 (WT), using adjusted genome copy numbers, or remained uninfected (mock). Viral input was adjusted to 1 × 10^5 copies per well. […] Dox was refreshed every second day. At 14 d p.i., supernatants were harvested, and viral genome equivalents were determined using HCMV IE1-specific qPCR. Each condition was examined in biological quadruplicates; mean values ± SDs are shown. […] Statistical analysis was performed using ordinary one-way ANOVA and post hoc Tukey testing; **** p ≤ 0.0001; n.s., not significant.

T1 sequence (P16791 whole entry): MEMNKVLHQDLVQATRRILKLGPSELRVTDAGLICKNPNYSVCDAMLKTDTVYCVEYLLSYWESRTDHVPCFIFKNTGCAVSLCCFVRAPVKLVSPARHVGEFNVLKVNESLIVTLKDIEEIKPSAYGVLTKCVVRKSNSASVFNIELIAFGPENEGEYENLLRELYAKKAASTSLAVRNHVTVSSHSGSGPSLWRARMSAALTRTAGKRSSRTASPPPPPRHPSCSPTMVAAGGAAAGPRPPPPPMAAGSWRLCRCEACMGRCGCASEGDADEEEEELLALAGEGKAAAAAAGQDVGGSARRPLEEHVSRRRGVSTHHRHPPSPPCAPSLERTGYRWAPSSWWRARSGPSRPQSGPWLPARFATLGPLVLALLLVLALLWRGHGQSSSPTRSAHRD
T3 sequence (P16791 whole entry): as above
T4 sequence (P10215 whole entry): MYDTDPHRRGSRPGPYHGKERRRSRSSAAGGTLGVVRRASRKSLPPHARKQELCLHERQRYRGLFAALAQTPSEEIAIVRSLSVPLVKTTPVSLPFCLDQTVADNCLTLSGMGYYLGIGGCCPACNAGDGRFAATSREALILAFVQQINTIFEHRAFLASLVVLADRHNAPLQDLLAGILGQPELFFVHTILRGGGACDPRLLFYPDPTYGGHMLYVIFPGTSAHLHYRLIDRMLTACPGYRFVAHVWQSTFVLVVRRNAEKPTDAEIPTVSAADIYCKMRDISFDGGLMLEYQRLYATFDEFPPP
T4 sequence (P10218 whole entry): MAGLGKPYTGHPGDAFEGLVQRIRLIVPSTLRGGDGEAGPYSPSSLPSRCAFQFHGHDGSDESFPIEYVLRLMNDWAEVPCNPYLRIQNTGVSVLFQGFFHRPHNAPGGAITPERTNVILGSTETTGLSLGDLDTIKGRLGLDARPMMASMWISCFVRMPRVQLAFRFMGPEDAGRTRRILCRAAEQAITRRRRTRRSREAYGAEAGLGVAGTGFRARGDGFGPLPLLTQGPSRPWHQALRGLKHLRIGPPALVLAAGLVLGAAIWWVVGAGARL
T5 sequence (P03185 whole entry): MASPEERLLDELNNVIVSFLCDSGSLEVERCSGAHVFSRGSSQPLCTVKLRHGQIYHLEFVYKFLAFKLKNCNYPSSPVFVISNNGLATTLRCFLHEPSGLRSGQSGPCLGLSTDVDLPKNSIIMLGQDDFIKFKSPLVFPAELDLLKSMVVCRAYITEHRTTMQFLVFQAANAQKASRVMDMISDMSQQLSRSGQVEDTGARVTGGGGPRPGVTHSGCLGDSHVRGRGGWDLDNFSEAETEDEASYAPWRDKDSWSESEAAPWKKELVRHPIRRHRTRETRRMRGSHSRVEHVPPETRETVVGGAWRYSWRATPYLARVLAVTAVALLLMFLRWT
T5 sequence (P0CK47 whole entry): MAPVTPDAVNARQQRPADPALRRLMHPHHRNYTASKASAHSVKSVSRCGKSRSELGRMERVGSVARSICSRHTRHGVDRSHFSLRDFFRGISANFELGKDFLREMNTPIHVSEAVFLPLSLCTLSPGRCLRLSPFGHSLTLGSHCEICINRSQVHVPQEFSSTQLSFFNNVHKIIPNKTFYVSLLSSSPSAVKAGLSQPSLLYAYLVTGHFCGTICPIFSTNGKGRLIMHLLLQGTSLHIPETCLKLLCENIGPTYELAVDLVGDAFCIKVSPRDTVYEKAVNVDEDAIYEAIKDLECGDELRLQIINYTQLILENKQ

C=CC(=O)N1CCC[C@@H](n2nc(-c3ccc(Oc4ccccc4)cc3)c3c(N)ncnc32)C1 [ibrutinib]
inhibitory effect on NanoBiT interaction signal (in words) [1]: most prominent, dose-dependent reduction in the measured interaction signal | effect on pUL97–cyclin H NanoBiT interaction (in words) [2]: inactive | core NEC nuclear rim localization (in words) [3]: predominant dot-like aggregation and speckle formation | core NEC nuclear rim localization (in words) [4]: did not show any similar alteration in nuclear rim localization | core NEC nuclear rim localization (in words) [5]: did not show any similar alteration in nuclear rim localization | EC50 (HCMV ∆UL50-ΣUL53; +S+D (Shield-1 1 µM, Dox 500 ng/mL), 14 d p.i., qPCR, two biological replicates): 4.8 ± 11.1 µM | EC50 (HCMV ∆UL50-ΣUL53; Human betaherpesvirus 5, 336 h, +S+D (Shield-1 1 µM, Dox 500 ng/mL), 14 d p.i., qPCR, two biological replicates): 4 ± 3.6 µM | EC50 (HCMV ∆UL50-ΣUL53; Human betaherpesvirus 5, 336 h, +S-D (no pUL50 induction), 14 d p.i., qPCR): > 32 µM | EC50 (HCMV ∆UL50-ΣUL53; Human betaherpesvirus 5, 336 h, -S+D (no pUL53 stabilization), 14 d p.i., qPCR): > 32 µM | EC50 (HCMV ∆UL50-ΣUL53; Human betaherpesvirus 5, 336 h, -S-D (neither core NEC protein), 14 d p.i., qPCR, two replicates): > 32 µM | EC50 (HCMV ∆UL50-ΣUL53; Human betaherpesvirus 5, read-out: mean EC50, ∆UL50-ΣUL53, +S+D, mean of replicates): 4.4 µM
